Columns and labels:
[1] = test system: Indica rice (Huanghuazhan); test: Safety test of control experiments on rice; type: in vivo; conditions: Dose 250 g a.i./ha
Excerpt: (§1) The activity level criteria for plant damage (i.e., growth control rate) are as follows: Comparative Experiments: [table]

[2] = test system: Japonica rice (Huaidao No. 5); test: Safety test of control experiments on rice; type: in vivo; conditions: Dose 250 g a.i./ha
Excerpt: as §1

[3] = test system: rice and Echinochloa crusgali; test: Herbicide selection index between rice and Echinochloa crusgali; type: in vivo; conditions: average dose causing 10% phytotoxicity to rice divided by average dose causing 90% control efficiency to Echinochloa crusgali
[4] = test system: Stellaria media; test: Weeding effect in post-emergence stage (greenhouse pot spray); type: in vivo
How it was run: (§2)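 Greenhouse post-emergence test: compounds were sprayed at 500, 250, 125, 60 and 15 g a.i./ha onto plants 2 weeks after sowing, and fresh weight control rates were averaged from three replicates 3 weeks later.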

[5] = test system: Amaranthus retroflexus; test: as above; type: in vivo
How it was run: as §2

[6] = test system: Echinochloa crusgali; test: Transplanted rice safety evaluation and weed control effect evaluation in rice field; type: in vivo
Excerpt: (§3) Transplanted rice safety evaluation and weed control effect evaluation in rice field:
(§4) Rice field soil was loaded into a 1/1,000,000 ha pot. The seeds of echinochloa crusgali, scirpus juncoides, Bidens tripartita, Sagittaria trifolia, Monochoria vaginalis and Leptochloa chinensis were sowed and gently covered with soil, then left to stand still in greenhouse in the state of 0.5-1 cm of water storage. The tuber of Sagittaria trifolia was planted in the next day or 2 days later. It was kept at 3-4 cm of water storage thereafter. The weeds were treated by dripping the WP or SC water diluents prepared according to the common preparation method of the compounds of the present invention with pipette homogeneously to achieve specified effective amount when echinochloa crusgali, scirpus juncoides, Bidens tripartita, Monochoria vaginalis and Leptochloa chinensis reached 0.5 leaf stage and Sagittaria trifolia reached the time point of primary leaf stage.
(§5) The fertility condition of echinochloa crusgali, scirpus juncoides, Bidens tripartita, Leptochloa chinensis, Sagittaria trifolia and Monochoria vaginalis 14 days after the treatment of the compound of the invention and the fertility condition of rice 21 days after the treatment of the compound of the invention respectively with the naked eye. Evaluate the weed control effect with 0-5 activity standard level. Many compounds show excellent activity and selectivity.

[7] = test system: Scirpus juncoides; test: as above; type: in vivo; conditions: Table 7, dose 125 g a.i./ha, 14 days after treatment
Excerpt: as §3, §4, §5

[8] = test system: Monochoria vaginalis; test: as above; type: in vivo
Excerpt: as §3, §4, §5

[9] = test system: Rice; test: as above; type: in vivo, rice (japonica rice/Indica rice)
Experimental: as §3
In addition, the rice field soil that loaded into the 1/1,000,000 ha pot was leveled to keep water storage at 3-4 cm depth. The 3 leaf stage rice (japonica rice/Indica rice) was transplanted at 3 cm of transplanting depth the next day. The compound of the present invention was treated by the same way after 5 days of transplantation.
as §5

[10] = test system: Echinochloa crusgalli; test: Weeding effect in post-emergence stage (greenhouse pot spray); type: in vivo
How it was run: as §2

[11] = test system: Abutilon theophrasti; test: as above; type: in vivo; conditions: for Abutilon theophrasti (activity level): Table 3, dose 60 g a.i./ha
How it was run: as §2

[12] = test system: Setaria viridis; test: as above; type: in vivo
How it was run: as §2

[13] = test system: Digitaria sanguinalis; test: as above; type: in vivo
How it was run: as §2

[14] = test system: Leptochloa chinensis; test: Transplanted rice safety evaluation and weed control effect evaluation in rice field; type: in vivo
Excerpt: as §3, §4, §5

[15] = test system: Sagittaria trifolia; test: as above; type: in vivo
Excerpt: as §3, §4, §5

[16] = test system: weeds; test: Actual control effects and combined effects of mixtures of active ingredients (i) and (ii), stem-leaf treatment, Gowing method; type: in vivo; conditions: Cyperus difformis, 20 days
[17] = Table 7, dose 125 g a.i./ha, 14 days after treatment
[18] = Table 7, dose 125 g a.i./ha, 21 days after treatment

CCCC[S+]([O-])c1c(C(F)(F)F)ccc(C(=O)Nc2nnc(C)o2)c1F (racemic) [Compound 1-14]
Indica rice (Huanghuazhan) (plant damage level) [1]: 0 (Level 0: growth control rate is less than 5%)
Japonica rice (Huaidao No. 5) (plant damage level) [2]: 0 (Level 0: growth control rate is less than 5%)
Selection index between rice and Echinochloa crusgali [3]: >5
Stellaria media (activity level) ([4]; Table 2, dose 125 g a.i./ha): 5 (Level 5: growth control rate is above 85%)
Amaranthus retroflexus (activity level) ([5]; Table 2, dose 125 g a.i./ha): 5 (Level 5: growth control rate is above 85%)
Echinochloa crusgali (activity level) [6, 17]: 5 (Level 5: growth control rate is above 85%)
Scirpus juncoides (activity level) [7]: 5 (Level 5: growth control rate is above 85%)
Monochoria vaginalis (activity level) [8, 17]: 5 (Level 5: growth control rate is above 85%)
Rice (safety level) [9, 18]: 0 (Level 0: growth control rate is less than 5%)
Echinochloa crusgah (activity level) ([10]; Table 2, dose 125 g a.i./ha): 5 (Level 5: growth control rate is above 85%)
Abutilion theophrasti (activity level) ([11]; Table 2, dose 125 g a.i./ha): 5 (Level 5: growth control rate is above 85%)
Abutilon theophrasti (activity level) [11]: 5 (Level 5: growth control rate is above 85%)
Setaria viridis (activity level) ([12]; Table 3, dose 60 g a.i./ha): 5 (Level 5: growth control rate is above 85%)
Digitaria sanguinalis (activity level) ([13]; Table 2, dose 125 g a.i./ha): 5 (Level 5: growth control rate is above 85%)
Digitaria sanguinahs (activity level) ([13]; Table 3, dose 60 g a.i./ha): 5 (Level 5: growth control rate is above 85%)

CCCC[S@+]([O-])c1c(C(F)(F)F)ccc(C(=O)Nc2nnc(C)o2)c1F [1-14 (R-configuration)]
Echinochloa crusgali (activity level) ([6]; Table 8, dose 60 g a.i./ha): 5 (Level 5: growth control rate is above 85%)
Leptochloa chinensis (activity level) ([14]; Table 8, dose 60 g a.i./ha): 5 (Level 5: growth control rate is above 85%)
Sagittaria trifolia (activity level) ([15]; Table 8, dose 60 g a.i./ha): 5 (Level 5: growth control rate is above 85%)
Monochoria vaginalis (activity level) ([8]; Table 8, dose 60 g a.i./ha): 5 (Level 5: growth control rate is above 85%)
Rice (safety level) ([9]; Table 8, dose 60 g a.i./ha): 0 (Level 0: growth control rate is less than 5%)
Echinochloa crusgali (activity level) ([10]; Table 3, dose 7.5 g a.i./ha): 5 (Level 5: growth control rate is above 85%)
Echinochloa crusgali (activity level) ([10]; Table 3, dose 15 g a.i./ha): 5 (Level 5: growth control rate is above 85%)
Echinochloa crusgali (activity level) ([10]; Table 3, dose 30 g a.i./ha): 5 (Level 5: growth control rate is above 85%)
Echinochloa crusgali (activity level) ([10]; Table 3, dose 60 g a.i./ha): 5 (Level 5: growth control rate is above 85%)
Setaria viridis (activity level) ([12]; Table 3, dose 7.5 g a.i./ha): 4 (Level 4: growth control rate is greater than or equal to 60% and less than 85%)
Setaria viridis (activity level) ([12]; Table 3, dose 15 g a.i./ha): 4 (Level 4: growth control rate is greater than or equal to 60% and less than 85%)
Setaria viridis (activity level) ([12]; Table 3, dose 30 g a.i./ha): 5 (Level 5: growth control rate is above 85%)
Setaria viridis (activity level) ([12]; Table 3, dose 60 g a.i./ha): 5 (Level 5: growth control rate is above 85%)
Digitaria sanguinahs (activity level) ([13]; Table 3, dose 7.5 g a.i./ha): 4 (Level 4: growth control rate is greater than or equal to 60% and less than 85%)
Digitaria sanguinahs (activity level) ([13]; Table 3, dose 15 g a.i./ha): 5 (Level 5: growth control rate is above 85%)
Digitaria sanguinahs (activity level) ([13]; Table 3, dose 30 g a.i./ha): 5 (Level 5: growth control rate is above 85%)
Digitaria sanguinahs (activity level) ([13]; Table 3, dose 60 g a.i./ha): 5 (Level 5: growth control rate is above 85%)

Cc1nnc(NC(=O)c2ccc(C(F)(F)F)c([S@@+]([O-])CC(C)C)c2F)o1 [1-20 (R-configuration)]
Echinochloa crusgali (activity level) ([6]; Table 8, dose 60 g a.i./ha): 5 (Level 5: growth control rate is above 85%)
Leptochloa chinensis (activity level) ([14]; Table 8, dose 60 g a.i./ha): 5 (Level 5: growth control rate is above 85%)
Sagittaria trifolia (activity level) ([15]; Table 8, dose 60 g a.i./ha): 5 (Level 5: growth control rate is above 85%)
Monochoria vaginalis (activity level) ([8]; Table 8, dose 60 g a.i./ha): 5 (Level 5: growth control rate is above 85%)
Rice (safety level) ([9]; Table 8, dose 60 g a.i./ha): 0 (Level 0: growth control rate is less than 5%)

Cc1nnc(NC(=O)c2ccc(C(F)(F)F)c([S@@+]([O-])C3COC3)c2F)o1 [1-82 (R-configuration)]
Echinochloa crusgali (activity level) ([6]; Table 8, dose 60 g a.i./ha): 5 (Level 5: growth control rate is above 85%)
Leptochloa chinensis (activity level) ([14]; Table 8, dose 60 g a.i./ha): 5 (Level 5: growth control rate is above 85%)
Sagittaria trifolia (activity level) ([15]; Table 8, dose 60 g a.i./ha): 5 (Level 5: growth control rate is above 85%)
Monochoria vaginalis (activity level) ([8]; Table 8, dose 60 g a.i./ha): 5 (Level 5: growth control rate is above 85%)
Rice (safety level) ([9]; Table 8, dose 60 g a.i./ha): 0 (Level 0: growth control rate is less than 5%)
Echinochloa crusgali (activity level) ([10]; Table 3, dose 125 g a.i./ha): 5 (Level 5: growth control rate is above 85%)
Setaria viridis (activity level) ([12]; Table 3, dose 125 g a.i./ha): 5 (Level 5: growth control rate is above 85%)
Digitaria sanguinahs (activity level) ([13]; Table 3, dose 125 g a.i./ha): 5 (Level 5: growth control rate is above 85%)

Cc1nnc(NC(=O)c2ccc(C(F)(F)F)c([S@@+]([O-])CCCF)c2F)o1 [1-403 (R-configuration)]
Echinochloa crusgali (activity level) ([6]; Table 8, dose 60 g a.i./ha): 5 (Level 5: growth control rate is above 85%)
Leptochloa chinensis (activity level) ([14]; Table 8, dose 60 g a.i./ha): 5 (Level 5: growth control rate is above 85%)
Sagittaria trifolia (activity level) ([15]; Table 8, dose 60 g a.i./ha): 5 (Level 5: growth control rate is above 85%)
Monochoria vaginalis (activity level) ([8]; Table 8, dose 60 g a.i./ha): 5 (Level 5: growth control rate is above 85%)
Rice (safety level) ([9]; Table 8, dose 60 g a.i./ha): 0 (Level 0: growth control rate is less than 5%)
Echinochloa crusgali (activity level) ([10]; Table 3, dose 60 g a.i./ha): 5 (Level 5: growth control rate is above 85%)
Setaria viridis (activity level) ([12]; Table 3, dose 60 g a.i./ha): 5 (Level 5: growth control rate is above 85%)
Digitaria sanguinahs (activity level) ([13]; Table 3, dose 60 g a.i./ha): 5 (Level 5: growth control rate is above 85%)

CC[S+]([O-])c1c(C(F)(F)F)ccc(C(=O)Nc2nnc(C)o2)c1F (stereo not drawn) [Compound 1-5]
Indica rice (Huanghuazhan) (plant damage level) [1]: 0 (Level 0: growth control rate is less than 5%)
Japonica rice (Huaidao No. 5) (plant damage level) [2]: 0 (Level 0: growth control rate is less than 5%)
Selection index between rice and Echinochloa crusgali [3]: >5
Stellaria media (activity level) ([4]; Table 2, dose 60 g a.i./ha): 5 (Level 5: growth control rate is above 85%)
Stellaria media (activity level) ([4]; Table 2, dose 125 g a.i./ha): 5 (Level 5: growth control rate is above 85%)
Amaranthus retroflexus (activity level) ([5]; Table 2, dose 60 g a.i./ha): 5 (Level 5: growth control rate is above 85%)
Amaranthus retroflexus (activity level) ([5]; Table 2, dose 125 g a.i./ha): 5 (Level 5: growth control rate is above 85%)
Echinochloa crusgali (activity level) [6, 17]: 5 (Level 5: growth control rate is above 85%)
Scirpus juncoides (activity level) [7]: 5 (Level 5: growth control rate is above 85%)
Monochoria vaginalis (activity level) [8, 17]: 5 (Level 5: growth control rate is above 85%)
Rice (safety level) [9, 18]: 0 (Level 0: growth control rate is less than 5%)
Echinochloa crusgah (activity level) ([10]; Table 2, dose 60 g a.i./ha): 5 (Level 5: growth control rate is above 85%)
Echinochloa crusgah (activity level) ([10]; Table 2, dose 125 g a.i./ha): 5 (Level 5: growth control rate is above 85%)
Echinochloa crusgali (activity level) ([10]; Table 3, dose 60 g a.i./ha): 5 (Level 5: growth control rate is above 85%)
Abutilion theophrasti (activity level) ([11]; Table 2, dose 60 g a.i./ha): 5 (Level 5: growth control rate is above 85%)
Abutilion theophrasti (activity level) ([11]; Table 2, dose 125 g a.i./ha): 5 (Level 5: growth control rate is above 85%)
Abutilon theophrasti (activity level) [11]: 5 (Level 5: growth control rate is above 85%)
Setaria viridis (activity level) ([12]; Table 3, dose 60 g a.i./ha): 5 (Level 5: growth control rate is above 85%)
Digitaria sanguinalis (activity level) ([13]; Table 2, dose 60 g a.i./ha): 5 (Level 5: growth control rate is above 85%)
Digitaria sanguinalis (activity level) ([13]; Table 2, dose 125 g a.i./ha): 5 (Level 5: growth control rate is above 85%)
Digitaria sanguinahs (activity level) ([13]; Table 3, dose 60 g a.i./ha): 5 (Level 5: growth control rate is above 85%)

COc1cnc(OC)n2nc(NS(=O)(=O)c3c(OCC(F)F)cccc3C(F)(F)F)nc12 [Penoxsulam, reference compound]
Echinochloa crusgali (activity level) ([6]; Table 8, 30 g a.i./ha): 0 (Level 0: growth control rate is less than 5%)
Leptochloa chinensis (activity level) ([14]; Table 8, 30 g a.i./ha): 1 (Level 1: growth control rate is greater than or equal to 5% and less than 20%)
Sagittaria trifolia (activity level) ([15]; Table 8, 30 g a.i./ha): 0 (Level 0: growth control rate is less than 5%)
Monochoria vaginalis (activity level) ([8]; Table 8, 30 g a.i./ha): 1 (Level 1: growth control rate is greater than or equal to 5% and less than 20%)
pest or weed control at 15 g/ha ([16]; 480 h, (ii) 1 g a.i./mu, stem-leaf treatment, read-out: Control effect of (ii) alone at corresponding dose): 66.4%
pest or weed control at 27 g/ha ([16]; 480 h, (ii) 1.8 g a.i./mu, read-out: Control effect of (ii) alone at corresponding dose): 80.2%
Control effect of (ii) alone at corresponding dose ([16]; (ii) 1 g a.i./mu): 66.4%

From patent US20230041563A1, “N-(1,3,4-OXADIAZOL-2-YL)ARYLCARBOXAMIDES OR SALTS THEREOF, PREPARATION METHODS, HERBICIDAL COMPOSITIONS AND USES THEREOF” (priority 2018, published 2023)
